Experimental data: PubChem BioAssay (NCI)
Values joined by “and” are separate entries in the source; they are usually repeats but may differ in a detail not shown here. Equal entries are not always repeated.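 Assay format: 96-well plates, 48-hour exposure. GI50 = concentration required for 50% inhibition of growth. The concentration for full growth arrest is given as TGI.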

Key:
Assay in all cases: NCI tumour cell line growth inhibition, 48 h
[1] = test system: COLO 205 colon
[2] = test system: MALME-3M melanoma
[3] = test system: A498 renal
[4] = test system: HCT-15 colon
[5] = test system: NCI-H522 lung
[6] = test system: LOX IMVI melanoma
[7] = test system: NCI-H226 lung
[8] = test system: BT-549 breast
[9] = test system: MCF7 breast
[10] = test system: SNB-75 CNS
[11] = test system: UO-31 renal
[12] = test system: NCI-H460 lung
[13] = test system: A549 NSCLC

CN1CCN(c2ccc3nc(-c4ccc5nc(-c6ccc(O)cc6)[nH]c5c4)[nH]c3c2)CC1
GI50 [1]: 6.24 µM and 19.5 µM and 6.78 µM
TGI [1]: 147 µM
GI50 [2]: 3.29 µM
TGI [2]: 62.5 µM
TGI [3]: 763 µM
TGI [4]: 736 µM
GI50 [5]: 4.47 µM and 3.05 µM
TGI [5]: 65.5 µM and 202 µM
TGI [6]: 553 µM
TGI [7]: 792 µM
TGI [8]: 715 µM
GI50 [9]: 5.33 µM
TGI [9]: 422 µM
TGI [10]: 619 µM
GI50 [11]: 10.6 µM
TGI [11]: 938 µM
GI50 [12]: 349 µM
TGI [12]: 714 µM
TGI [13]: 756 µM

CCOC(=O)C(=O)/C(=C/N1C(=O)CC(=O)NC1=S)C(=O)OCC
TGI [1]: > 100 µM
TGI [2]: > 100 µM
TGI [3]: > 100 µM
TGI [4]: > 100 µM
TGI [5]: > 100 µM
TGI [6]: > 100 µM
TGI [7]: > 100 µM
TGI [8]: > 100 µM
TGI [9]: > 100 µM
TGI [10]: > 100 µM
TGI [11]: > 100 µM
TGI [12]: > 100 µM
TGI [13]: > 100 µM

CCN(CC)CCNc1ccc2nnn3c4ccc(O)cc4c(=O)c1c23
TGI [1]: 16.9 µM
TGI [2]: 19.4 µM
TGI [3]: 16 µM
TGI [4]: 17.6 µM
TGI [5]: 20.9 µM
TGI [6]: 4.05 µM
TGI [7]: 14.7 µM
TGI [8]: 25.5 µM
TGI [9]: 28.1 µM
TGI [10]: 14.1 µM
TGI [11]: 4.06 µM
TGI [12]: 4.64 µM
TGI [13]: 13.3 µM

CC(=O)C1=C(C)N(c2ccc(C)cc2)C2(O)C3=C(C(=O)c4ccccc4C3=O)C(O)=CC12Cl (centres undefined)
TGI [1]: 63.9 µM
TGI [2]: 36.5 µM
TGI [3]: 10.3 µM
TGI [4]: > 100 µM
TGI [5]: 33.2 µM
TGI [6]: > 100 µM
TGI [7]: > 100 µM
TGI [8]: 45.9 µM
TGI [9]: > 100 µM
TGI [10]: > 100 µM
TGI [11]: 34.6 µM
TGI [12]: > 100 µM
TGI [13]: > 100 µM

CCOc1cc2oc(C)cc(=O)c2c(OC)c1C=Nc1ccc(Cn2c(C)nc3ccccc32)cc1
TGI [1]: > 100 µM
TGI [2]: > 100 µM
TGI [3]: > 100 µM
TGI [4]: > 100 µM
TGI [5]: > 100 µM
TGI [6]: > 100 µM
TGI [7]: > 100 µM
TGI [8]: > 100 µM
TGI [9]: > 100 µM
TGI [10]: > 100 µM
TGI [11]: > 100 µM
TGI [12]: > 100 µM
TGI [13]: > 100 µM

COc1ccc(/C=C2\CCC/C(=C\c3ccc(O)c(CN4CCCCC4)c3)C2=O)cc1
TGI [1]: 46.9 µM
TGI [2]: 49 µM
TGI [3]: 47.1 µM
TGI [4]: 36 µM
TGI [5]: 19.1 µM
TGI [6]: 26.1 µM
TGI [7]: 45.8 µM
TGI [8]: 37.7 µM
TGI [9]: 28.5 µM
TGI [10]: > 71.8 µM
TGI [11]: 39.9 µM
TGI [12]: 44.8 µM
TGI [13]: 52.8 µM
